# Assay results taken from PMC11946679 (Toxics, 2025).
# Assays:
# [1] = tested on: human peripheral blood lymphocytes; assay: CBMN cytome assay: micronuclei, nuclear buds, nucleoplasmic bridges; conditions: 3 h
# Experimental: The CBMN assay was performed in line with standard protocols [8, 23].
# To collect the blood sample, lithium heparin-coated tubes were used (BD vacutainer® with LH 170 I.U., Becton Dickinson: BD-Plymouth PL6 78P, UK).
# There were 15 experimental groups altogether. The same experimental design was applied in two independent trials, each of which had two replicate cultures per experimental group; therefore, four replicate cultures for every single experimental group were established.
# To induce cell division prior to exposure to the test chemicals, lymphocytes were stimulated with the mitogen phytohemagglutinin (PHA). Cultures were kept in a humidified atmosphere of 5% CO2 at 37 °C.
# They started 41 h after PHA stimulation and lasted for 3 h at 37 °C.
# Upon completion of exposure, lymphocyte cultures were centrifuged at 100× g. […] This procedure was timed for the 44th hour of lymphocyte cultivation, which represents a critical point for adding of cytoB to hinder cytokinesis and obtain binucleated cells. All treated and control cultures were further maintained at 37 °C until the end of the 72nd hour of cultivation, according to the above-mentioned standard protocols.
# The first step in the preparation of microscopic slides was harvesting of cells by centrifugation (100× g), followed by treatment with 0.075 mol/L potassium chloride and succeeded by centrifugation. The sediments of cells were repeatedly fixed with methanol/acetic acid (3:1 v/v) followed by centrifugation. The final lymphocyte suspension was pipetted onto clean microscope slides. For staining, 5% aqueous solution of Giemsa dye was used. Slides were screened using a light microscope at 1000× magnification. For morphological discrimination of micronuclei (MNi), nuclear buds (NBs), nucleoplasmic bridges (NPBs) and cells in apoptosis or necrosis, the criteria by Fenech et al. [25] and Fenech [23] were applied. To determine their frequencies, per experimental point, a total of 4 × 1000 binucleated (BN) cells were scored.
# This value was first used to estimate the number of MNi required to reach a decrease and an increase considered significant at a 5% significance level.
# human lymphocytes = tested on: human lymphocytes; parameters: method as in PMID 27461151; conditions: galangin at 10-20,000 μmol/L; cited from earlier work
# [2] = tested on: human peripheral blood lymphocytes; assay: CBMN cytome assay: lymphocyte proliferation (M1-M4, CBPI, RI); format: cell-based; conditions: 3 h
# Experimental: On the same slides, parameters of cell proliferation and cytotoxicity were also evaluated, in line with the OECD protocol.
# [3] = 5× alone, propolis 6.8 mg/L, galangin […]
# [4] = 10× + IRI 9.0 mg/L, propolis 13.6 mg/L, galangin 0.22 mg/L
# [5] = 10× alone, propolis 13.6 mg/L, galangin 0.22 mg/L
# [6] = 1× + IRI 9.0 mg/L, propolis 1.36 mg/L, galangin 0.02 mg/L
# [7] = 1× alone, propolis 1.36 mg/L, galangin 0.02 mg/L
# [8] = 5× + IRI 9.0 mg/L, propolis 6.8 mg/L, galangin […]
smiles,measurement,setting,value
O=c1c(O)c(-c2ccccc2)oc2cc(O)cc(O)c12 [Galangin],Nucleoplasmic Bridges (NPBs) Total (BNNPB)4000,[1]; [3],0
same,Nucleoplasmic Bridges (NPBs) Total (NPBs)4000,[1]; [3],0
same,Micronuclei (MNi) Mean (MNi)1000 ± SD,"[1]; 5× alone, propolis 6.8 mg/L, galangin […], listed as galangin",2.25
same,Distribution of BNMN Cells with 1 MN,[1]; [4],"44 c,p1,p5, p10,g1,g5, g10,p1+iri, p5+iri, p10+iri"
same,Distribution of BNMN Cells with 2 MN,[1]; [4],5
same,Distribution of BNMN Cells with 3 MN,[1]; [4],0
same,Distribution of BNMN Cells with 4 MN,[1]; [4],0
same,Distribution of BNNB Cells with 1 NB,[1]; [4],"30 c,p1,p5, p10,g1,g5,g10, p1+iri"
same,Distribution of BNNB Cells with 2 NB,[1]; [4],0
same,Distribution of BNNPB Cells with 1 NPB,[1]; [4],0
same,Distribution of BNNPB Cells with 2 NPB,[1]; [4],0
same,Micronuclei (MNi) Mean (BNMN)1000 ± SD,[1]; [4],"12.25 ± 0.82 c,p1,p5,p10,g1,g5, g10,p1+iri, p5+iri, p10+iri"
same,Micronuclei (MNi) Mean (MNi)1000 ± SD,[1]; [4],"13.50 ± 1.29 c,p1,p5,p10,g1,g5,g10, p1+iri, p5+iri, p10+iri"
same,Micronuclei (MNi) Total (BNMN)4000,[1]; [4],"49 c,p1,p5,p10,g1,g5,g10, p1+iri, p5+iri, p10+iri"
same,Micronuclei (MNi) Total (MNi)4000,[1]; [4],"54 c,p1,p5,p10,g1,g5, g10,p1+iri, p5+iri, p10+iri"
same,Nuclear Buds (NBs) Mean (BNNB)1000 ± SD,[1]; [4],"7.50 ± 1.29 c,p1,p5,p10, g1,g5,g10, p1+iri"
same,Nuclear Buds (NBs) Mean (NBs)1000 ± SD,[1]; [4],"7.50 ± 1.29 c,p1,p5,p10,g1,g5,g10,p1+iri"
same,Nuclear Buds (NBs) Total (BNNB)4000,[1]; [4],"30 c,p1,p5,p10, g1,g5,g10, p1+iri"
same,Nuclear Buds (NBs) Total (NBs)4000,[1]; [4],"30 c,p1,p5, p10,g1,g5, g10,p1+iri"
same,Nucleoplasmic Bridges (NPBs) Mean (BNNPB)1000 ± SD,[1]; [4],0
same,Nucleoplasmic Bridges (NPBs) Mean (NPBs)1000 ± SD,[1]; [4],0
same,Nucleoplasmic Bridges (NPBs) Total (BNNPB)4000,[1]; [4],0
same,Nucleoplasmic Bridges (NPBs) Total (NPBs)4000,[1]; [4],0
same,Micronuclei (MNi) Mean (MNi)1000 ± SD,"[1]; 10× + IRI 9.0 mg/L, propolis 13.6 mg/L, galangin 0.22 mg/L, listed as galangin",13.50
same,Distribution of BNMN Cells with 1 MN,[1]; [5],7
same,Distribution of BNMN Cells with 2 MN,[1]; [5],0
same,Distribution of BNMN Cells with 3 MN,[1]; [5],0
same,Distribution of BNMN Cells with 4 MN,[1]; [5],0
same,Distribution of BNNB Cells with 1 NB,[1]; [5],9
same,Distribution of BNNB Cells with 2 NB,[1]; [5],0
same,Distribution of BNNPB Cells with 1 NPB,[1]; [5],0
same,Distribution of BNNPB Cells with 2 NPB,[1]; [5],0
same,Micronuclei (MNi) Mean (BNMN)1000 ± SD,[1]; [5],1.75 ± 0.50
same,Micronuclei (MNi) Mean (MNi)1000 ± SD,[1]; [5],1.75 ± 0.50
same,Micronuclei (MNi) Total (BNMN)4000,[1]; [5],7
same,Micronuclei (MNi) Total (MNi)4000,[1]; [5],7
same,Nuclear Buds (NBs) Mean (BNNB)1000 ± SD,[1]; [5],2.25 ± 0.50
same,Nuclear Buds (NBs) Mean (NBs)1000 ± SD,[1]; [5],2.25 ± 0.50
same,Nuclear Buds (NBs) Total (BNNB)4000,[1]; [5],9
same,Nuclear Buds (NBs) Total (NBs)4000,[1]; [5],9
same,Nucleoplasmic Bridges (NPBs) Mean (BNNPB)1000 ± SD,[1]; [5],0
same,Nucleoplasmic Bridges (NPBs) Mean (NPBs)1000 ± SD,[1]; [5],0
same,Nucleoplasmic Bridges (NPBs) Total (BNNPB)4000,[1]; [5],0
same,Nucleoplasmic Bridges (NPBs) Total (NPBs)4000,[1]; [5],0
same,Micronuclei (MNi) Mean (MNi)1000 ± SD,"[1]; 10× alone, propolis 13.6 mg/L, galangin 0.22 mg/L, listed as galangin",1.75
same,genotoxicity,human lymphocytes,not genotoxic per se
same,% of Cells with 1 to 4 Nuclei M1,[2]; [6],24.5 ^↑L %
same,% of Cells with 1 to 4 Nuclei M2,[2]; [6],72.3 ^H %
same,% of Cells with 1 to 4 Nuclei M3,[2]; [6],1.4 ^↓ %
same,% of Cells with 1 to 4 Nuclei M4,[2]; [6],1.8 ^↓ %
same,CBPI,[2]; [6],1.788
same,Replication Index (%),[2]; [6],80.1%
same,% of Cells with 1 to 4 Nuclei M1,[2]; [7],13.4%
same,% of Cells with 1 to 4 Nuclei M2,[2]; [7],74.7%
same,% of Cells with 1 to 4 Nuclei M3,[2]; [7],4.0%
same,% of Cells with 1 to 4 Nuclei M4,[2]; [7],7.9%
same,CBPI,[2]; [7],1.986
same,Replication Index (%),[2]; [7],100.3%
same,% of Cells with 1 to 4 Nuclei M1,[2]; [8],22.6 ^↑L %
same,% of Cells with 1 to 4 Nuclei M2,[2]; [8],74.2 ^H %
same,% of Cells with 1 to 4 Nuclei M3,[2]; [8],1.6 ^↓ %
same,% of Cells with 1 to 4 Nuclei M4,[2]; [8],1.6 ^↓ %
same,CBPI,[2]; [8],1.806
same,Replication Index (%),[2]; [8],82.0%
same,% of Cells with 1 to 4 Nuclei M1,[2]; [3],13.3%
same,% of Cells with 1 to 4 Nuclei M2,[2]; [3],76.9 ^↑ %
same,% of Cells with 1 to 4 Nuclei M3,[2]; [3],3.3 ^↓ %
same,% of Cells with 1 to 4 Nuclei M4,[2]; [3],6.5%
same,CBPI,[2]; [3],1.967
same,Replication Index (%),[2]; [3],98.3%
same,% of Cells with 1 to 4 Nuclei M1,[2]; [4],23.1 ^↑L %
same,% of Cells with 1 to 4 Nuclei M2,[2]; [4],74.6 ^H %
same,% of Cells with 1 to 4 Nuclei M3,[2]; [4],1.0 ^↓L %
same,% of Cells with 1 to 4 Nuclei M4,[2]; [4],1.3 ^↓ %
same,CBPI,[2]; [4],1.792
same,Replication Index (%),[2]; [4],80.5%
same,% of Cells with 1 to 4 Nuclei M1,[2]; [5],10.8 ^↓ %
same,% of Cells with 1 to 4 Nuclei M2,[2]; [5],79.0 ^↑ %
same,% of Cells with 1 to 4 Nuclei M3,[2]; [5],4.0%
same,% of Cells with 1 to 4 Nuclei M4,[2]; [5],6.2%
same,CBPI,[2]; [5],1.995
same,Replication Index (%),[2]; [5],101.2%
